Data reported in patent US20240294543A1, “CYCLOHEPTA-THIENO-DIAZEPINE DERIVATIVES AS GABA A GAMMA1 PAM” (Hoffmann-La Roche Inc., priority 2021, published 2024).
Where two headings read alike, the source gives them in different places.

What was measured:
[1] = target: human GABAA α1β2γ1 receptor (Homo sapiens (Human), UniProt P14867+Q8N1C3); experiment: Radioligand binding assay, competition for [3H]RO7239181, γ1-containing GABAA subtypes
[2] = target: h-GABA-A α2β2γ1 (Homo sapiens (Human), UniProt P47869+Q8N1C3); experiment: Two-electrode voltage clamp electrophysiology in Xenopus oocytes expressing GABAA receptors; type: cell-based; settings: for Efficacy (GABA) %: % modulation of GABA EC20 = 100*(Fold increase−1), compound at about 30-fold its Ki α2β2γ1; for Fold increase h-GABA-A α2β2γ1 oocyte @ 30-fold Ki: Xenopus oocytes, GABA EC20, compound at about 30-fold its Ki α2β2γ1
Procedure, shortened: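 Xenopus oocytes injected with receptor subunit RNA and recorded 3–5 days later by two-electrode voltage clamp at −80 mV, room temperature, pH 7.4. GABA applied at EC20 for 1.5 min, with and without test compound. Efficacy = extremum of the point-by-point ratio of the two responses, expressed as % modulation of GABA EC20; ≥3 oocytes per concentration.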

[3] = membranes of HEK293F cells, [3H]RO7239181 20-30 nM, Table 1, read-out: Ki h-GABAA α1β2γ1
[4] = Ki h-GABAA α1β2γ1, membranes of HEK293F cells, [3H]RO7239181 20-30 nM, Table 1
[5] = Ki h-GABAA α1β2γ1, Table 3, reference compounds and examples

SMILES	Ki [1, 3] [nM]	Efficacy (GABA) % [2] [%]	Fold increase h-GABA-A α2β2γ1 oocyte @ 30-fold Ki [2]	Ki [1, 4] [nM]	Ki [1, 5] [nM]
C[C@@H]1N=C(c2c(F)cccc2F)c2c(sc3c2COC[C@H](C)O3)-n2nc(C(=O)N3CC(F)C3)nc21 [Example 40, [(7S,15S)-9-(2,6-difluorophenyl)-7,15-dimethyl-13,16-dioxa-18-thia-2,3,5,8-tetrazatetracyclo[8.8.0.02,6.011,17]octadeca-1(10),3,5,8,11(17)-pentaen-4-yl]-(3-fluoroazetidin-1-yl)methanone]	286	141	2.41		
Cc1nnc2n1-c1sc3c(c1C(c1c(F)cccc1Cl)=N[C@H]2C)COCCO3 [Example 35, (7S)-9-(2-chloro-6-fluoro-phenyl)-3,7-dimethyl-13,16-dioxa-18-thia-2,4,5,8-tetrazatetracyclo[8.8.0.02,6.011,17]octadeca-1(10),3,5,8,11(17)-pentaene]		61	1.61	47.2	
Cc1nnc2n1-c1sc3c(c1C(c1c(F)cccc1F)=N[C@H]2C)CCCC[C@@H]3F (single isomer, unassigned) [Example 12]		185	2.85	45.7	
Cc1nnc2n1-c1sc3c(c1C(c1c(F)cccc1F)=N[C@H]2C)OCCCC3 [Example 33, (7S)-9-(2,6-difluorophenyl)-3,7-dimethyl-12-oxa-18-thia-2,4,5,8-tetrazatetracyclo[8.8.0.02,6.011,17]octadeca-1(10),3,5,8,11(17)-pentaene]		76	1.76	380	
C[C@@H]1N=C(c2c(F)cccc2F)c2c(sc3c2COCCO3)-n2nc(C(=O)N3CC(F)C3)nc21 [Example 24, (3-fluoroazetidin-1-yl)-[(7S)-9-(2,6-difluorophenyl)-7-methyl-13,16-dioxa-18-thia-2,3,5,8-tetrazatetracyclo[8.8.0.02,6.011,17]octadeca-1(10),3,5,8,11(17)-pentaen-4-yl]methanone]		59	1.59	24.7	
Cc1nnc2n1-c1sc3c(c1C(c1c(F)cccc1F)=N[C@H]2C)CCC[C@H](F)C3 (single isomer, unassigned) [Example 17]		135	2.35	30.2	
Cc1nnc2n1-c1sc3c(c1C(c1c(F)cccc1F)=NC2)CCCCO3 [Example 18, 9-(2,6-difluorophenyl)-3-methyl-16-oxa-18-thia-2,4,5,8-tetrazatetracyclo[8.8.0.02,6.011,17]octadeca-1(10),3,5,8,11(17)-pentaene]		113	2.13	55.1	
Cc1nnc2n1-c1sc3c(c1C(c1c(F)cccc1F)=N[C@H]2C)CCCCO3 [Example 19, (7S)-9-(2,6-difluorophenyl)-3,7-dimethyl-16-oxa-18-thia-2,4,5,8-tetrazatetracyclo[8.8.0.02,6.011,17]octadeca-1(10),3,5,8,11(17)-pentaene]		122	2.22	80.5	
C[C@@H]1N=C(c2c(F)cccc2F)c2c(sc3c2COCCO3)-n2nc(C(=O)NC[C@@](C)(O)C(F)(F)F)nc21 [Example 46, (7S)-9-(2,6-difluorophenyl)-7-methyl-N-[(2R)-3,3,3-trifluoro-2-hydroxy-2-methyl-propyl]-13,16-dioxa-18-thia-2,3,5,8-tetrazatetracyclo[8.8.0.02,6.011,17]octadeca-1(10),3,5,8,11(17)-pentaene-4-carboxamide]		84	1.84	60	
C[C@@H]1N=C(c2c(F)cccc2F)c2c(sc3c2COCCO3)-n2nc(C(=O)NC[C@](C)(O)C(F)(F)F)nc21 [Example 47, (7S)-9-(2,6-difluorophenyl)-7-methyl-N-[(2S)-3,3,3-trifluoro-2-hydroxy-2-methyl-propyl]-13,16-dioxa-18-thia-2,3,5,8-tetrazatetracyclo[8.8.0.02,6.011,17]octadeca-1(10),3,5,8,11(17)-pentaene-4-carboxamide]		89	1.89	93.4	
Cc1nnc2n1-c1sc3c(c1C(c1c(F)cccc1Cl)=N[C@H]2C)COCCC3 [Example 61, (7S)-9-(2-chloro-6-fluoro-phenyl)-3,7-dimethyl-13-oxa-18-thia-2,4,5,8-tetrazatetracyclo[8.8.0.02,6.011,17]octadeca-1(10),3,5,8,11(17)-pentaene]		165	2.65	49.1	
CCOC1CN(C(=O)c2nc3n(n2)-c2sc4c(c2C(c2c(F)cccc2F)=N[C@H]3C)COCCO4)C1 [Example 31, [(7S)-9-(2,6-Difluorophenyl)-7-methyl-13,16-dioxa-18-thia-2,3,5,8-tetrazatetracyclo[8.8.0.02,6.011,17]octadeca-1(10),3,5,8,11(17)-pentaen-4-yl]-(3-ethoxyazetidin-1-yl)methanone]		69	1.69	43.6	
Cc1nnc2n1-c1sc3c(c1C(c1c(F)cccc1F)=N[C@H]2C)CC[C@H](F)CC3 (single isomer, unassigned) [Example 14]		181	2.81	118	
Cc1nnc2n1-c1sc3c(c1C(c1c(F)cccc1F)=N[C@H]2C)CCCC(F)(F)C3 [Example 8, (7S)-9-(2,6-difluorophenyl)-15,15-difluoro-3,7-dimethyl-18-thia-2,4,5,8-tetrazatetracyclo[8.8.0.02,6.011,17]octadeca-1(10),3,5,8,11(17)-pentaene]		203	3.03	312	
Cc1nnc2n1-c1sc3c(c1C(c1c(F)cccc1F)=N[C@H]2C)COC[C@H](C)O3 [Example 30, (7S,15S)-9-(2,6-difluorophenyl)-3,7,15-trimethyl-13,16-dioxa-18-thia-2,4,5,8-tetrazatetracyclo[8.8.0.02,6.011,17]octadeca-1(10),3,5,8,11(17)-pentaene]		150	2.50	205	
Cc1nnc2n1-c1sc3c(c1C(c1c(F)cccc1F)=N[C@H]2C)COCCC3 [Example 52, (7S)-9-(2,6-difluorophenyl)-3,7-dimethyl-13-oxa-18-thia-2,4,5,8-tetrazatetracyclo[8.8.0.02,6.011,17]octadeca-1(10),3,5,8,11(17)-pentaene]		170	2.70	75.3	75.3
C[C@@H]1N=C(c2c(F)cccc2F)c2c(sc3c2COCCO3)-n2nc(C(=O)NCC(C)(C)O)nc21 [Example 45, (7S)-9-(2,6-difluorophenyl)-N-(2-hydroxy-2-methyl-propyl)-7-methyl-13,16-dioxa-18-thia-2,3,5,8-tetrazatetracyclo[8.8.0.02,6.011,17]octadeca-1(10),3,5,8,11(17)-pentaene-4-carboxamide]	103	101	2.01		
Cc1nnc2n1-c1sc3c(c1C(c1c(F)cccc1F)=NC2)CCCCC3 [Example 1, 9-(2,6-difluorophenyl)-3-methyl-18-thia-2,4,5,8-tetrazatetracyclo[8.8.0.02,6.011,17]octadeca-1(10),3,5,8,11(17)-pentaene]		64	1.64	20	19.7
Cc1nnc2n1-c1sc3c(c1C(c1c(F)cccc1F)=N[C@H]2C)COCCO3 [Example 21, (7S)-9-(2,6-difluorophenyl)-3,7-dimethyl-13,16-dioxa-18-thia-2,4,5,8-tetrazatetracyclo[8.8.0.02,6.011,17]octadeca-1(10),3,5,8,11(17)-pentaene]		140	2.40	52.6	52.6
